This note sets out measurements from patent US20070219203A1, “Arylalkylamino-substituted quinazoline analogues” (Neurogen Corporation, priority 2004, published 2007).

pIC50: −log10 of the molar value. Some results are limits rather than exact numbers.

This assay has as its target T1, human capsaicin receptor (Homo sapiens, UniProt Q8NER1).
T1 construct: expressed in transfected cells
The experiment in a line: Calcium mobilization assay, antagonist activity (Example 6). It is filed as cell-based. The settings on record: 50% decrease in fluorescence response of cells expressing human capsaicin receptor exposed to capsaicin. The essentials: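 Stable HEK293 clones expressing full-length human receptor, loaded with Fluo-3 in KRH buffer pH 7.4. Test compounds at 1 μM to 5 μM final preincubated 0.5 to 6 hours at room temperature, then challenged with capsaicin at its EC50; IC50 is 50% decrease in FLIPR calcium response.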
Background: A change in cytosolic calcium serves as a functional read-out for many receptors and channels.

T1 sequence (Q8NER1 whole entry): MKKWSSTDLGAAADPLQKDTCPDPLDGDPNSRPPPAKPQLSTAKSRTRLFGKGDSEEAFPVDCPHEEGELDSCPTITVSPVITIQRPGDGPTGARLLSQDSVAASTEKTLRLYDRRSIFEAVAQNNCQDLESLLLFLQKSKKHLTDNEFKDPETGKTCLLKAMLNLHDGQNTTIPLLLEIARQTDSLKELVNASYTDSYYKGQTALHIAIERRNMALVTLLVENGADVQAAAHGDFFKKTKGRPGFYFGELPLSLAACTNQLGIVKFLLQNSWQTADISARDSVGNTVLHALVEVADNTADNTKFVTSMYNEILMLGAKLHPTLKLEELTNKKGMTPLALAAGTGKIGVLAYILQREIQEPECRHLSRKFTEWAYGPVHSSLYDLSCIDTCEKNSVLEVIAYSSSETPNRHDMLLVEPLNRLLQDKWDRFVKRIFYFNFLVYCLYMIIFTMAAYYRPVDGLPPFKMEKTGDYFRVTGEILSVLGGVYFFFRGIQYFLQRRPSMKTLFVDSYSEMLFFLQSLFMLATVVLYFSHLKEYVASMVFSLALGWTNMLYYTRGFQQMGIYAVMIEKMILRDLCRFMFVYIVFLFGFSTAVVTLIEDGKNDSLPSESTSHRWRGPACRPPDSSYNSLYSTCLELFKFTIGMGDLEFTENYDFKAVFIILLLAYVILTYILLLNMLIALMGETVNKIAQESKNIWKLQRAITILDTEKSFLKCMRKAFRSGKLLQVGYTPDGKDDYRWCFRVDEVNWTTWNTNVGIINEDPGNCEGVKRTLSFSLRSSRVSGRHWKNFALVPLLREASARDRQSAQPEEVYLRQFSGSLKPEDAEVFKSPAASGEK

Turning to `CCCCCN(CCCCC)Cc1nc(NCCc2ccccc2Cl)c2ccc(-c3ncccc3C(F)(F)F)cc2n1` [Compound 172, [2-(2-Chloro-phenyl)-ethyl]-[2-dipentylaminomethyl-7-(3-trifluoromethyl-pyridin-2-yl)-quinazolin-4-yl]-amine], under “Table II”, the pIC50 (usually the negative decadic logarithm of the IC50, by convention in mol/L) is no less than 6.00.

As to `CC1CCN(Cc2nc(NCCc3ccccc3)c3ccc(-c4ncccc4C(F)(F)F)cc3n2)CC(C)(C)C1` (stereo not drawn) [Compound 106, Phenethyl-[7-(3-trifluoromethyl-pyridin-2-yl)-2-(3,3,5-trimethyl-azepan-1-ylmethyl)-quinazolin-4-yl]-amine], the pIC50 (Table II) is no less than 6.00. `C=CCN(CC=C)Cc1nc(NCCc2ccccc2)c2ccc(-c3ncccc3C(F)(F)F)cc2n1` [Compound 130, [2-Diallylaminomethyl-7-(3-trifluoromethyl-pyridin-2-yl)-quinazolin-4-yl]-phenethyl-amine]: for the setting “Table II”, the pIC50 was no less than 6.00. Take `CC(C)COCc1nc(NCCc2ccccc2Cl)c2ccc(-c3ncccc3C(F)(F)F)nc2n1` [Compound 33, N-[2-(2-chlorophenyl)ethyl]-2-(isobutoxymethyl)-7-[3-(trifluoromethyl)pyridin-2-yl]pyrido[2,3-d]pyrimidin-4-amine]: where the note is “Table I”, the pIC50 is no less than 6.00. On the same count and under the same terms, under `CC(CNc1ncnc2cc(-c3ncccc3C(F)(F)F)ccc12)c1ccccc1` (stereo not drawn) [Compound 18, N-(2-phenylpropyl)-7-[3-(trifluoromethyl)pyridin-2-yl]quinazolin-4-amine] stands no less than 6.00; under `CC(C)COCc1nc(NCCc2cccc(C(F)(F)F)c2)c2ccc(-c3ncccc3C(F)(F)F)nc2n1` [Compound 39, 2-(isobutoxymethyl)-N-{2-[3-(trifluoromethyl)phenyl]ethYl}-7-[3-(trifluoromethyl)pyridin-2-yl]pyrido[2,3-d]pyrimidin-4-amine], no less than 6.00. Still for that read-out and setting: in the case of `CCOCc1nc(NCCc2cccc(Cl)c2)c2ccc(-c3ncccc3Cl)nc2n1` [Compound 55, N-[2-(3-chlorophenyl)ethyl]-7-(3-chloropyridin-2-yl)-2-(ethoxymethyl)pyrido[2,3-d]pyrimidin-4-amine] it was no less than 6.00. Take `CC1CC(C)CN(Cc2nc(NCCc3ccccc3Cl)c3ccc(-c4ncccc4C(F)(F)F)cc3n2)C1` (stereo not drawn) [Compound 178, [2-(2-Chloro-phenyl)-ethYl]-[2-(3,5-dimethyl-piperidin-1-ylmethyl)-7-(3-trifluoromethyl-pyridin-2-yl)-quinazolin-4-yl]-amine]: for the setting “Table II”, the negative logarithm of the IC50 (pIC50) is no less than 6.00. Regarding `CC(C)COCc1nc(NCCc2ccccc2C(F)(F)F)c2ccc(-c3ncccc3C(F)(F)F)nc2n1` [Compound 38, 2-(isobutoxymethyl)-N-{2-[2-(trifluoromethyl)phenyl]ethyl}-7-[3-(trifluoromethyl)pyridin-2-yl]pyrido[2,3-d]pyrimidin-4-amine], the pIC50 (Table I) was no less than 6.00.

Regarding `CCCCN(CCCC)Cc1nc(NCCc2ccccc2)c2ccc(-c3ncccc3C(F)(F)F)cc2n1` [Compound 145, [2-Dibutylaminomethyl-7-(3-trifluoromethyl-pyridin-2-yl)-quinazolin-4-yl]-phenethyl-amine], the pIC50 (Table II) was no less than 6.00. Turning to `FC(F)(F)c1ccc(CCNc2ncnc3cc(-c4ncccc4C(F)(F)F)ccc23)cc1` [Compound 17, N-{2-[4-(trifluoromethyl)phenyl]ethyl}-7-[3-(trifluoromethyl)pyridin-2-yl]quinazolin-4-amine], the pIC50 (Table I) was no less than 6.00. In the case of `FC(F)(F)c1cccc(CCNc2ncnc3cc(-c4ncccc4C(F)(F)F)ccc23)c1` [Compound 16, N-{2-[3-(trifluoromethyl)phenyl]ethyl}-7-[3-(trifluoromethyl)pyridin-2-yl]quinazolin-4-amine], for the setting “Table I”, the pIC50 was no less than 6.00. Same read-out and setting: under `CC(C)COCc1nc(NCCc2ccc(Cl)cc2)c2ccc(-c3ncccc3Cl)nc2n1` [Compound 49, N-[2-(4-chlorophenyl)ethyl]-7-(3-chloropyridin-2-yl)-2-(isobutoxymethyl)pyrido[2,3-d]pyrimidin-4-amine] stands no less than 6.00; under `Cc1nc(NCCc2ccccc2Cl)c2ncc(-c3ncccc3Cl)cc2n1` [Compound 30, N-[2-(2-chlorophenyl)ethyl]-7-(3-chloropyridin-2-yl)-2-methylpyrido[3,2-d]pyrimidin-4-amine], no less than 6.00.

Turning to `CC(C)COCc1nc(NCCc2cccc(Cl)c2)c2ccc(-c3ncccc3C(F)(F)F)nc2n1` [Compound 34, N-[2-(3-chlorophenyl)ethyl]-2-(isobutoxymethyl)-7-[3-(trifluoromethyl)pyridin-2-yl]pyrido[2,3-d]pyrimidin-4-amine], the pIC50 (Table I) is no less than 6.00. Still for that read-out and setting: under `CC(C)COCc1nc(NCCc2cccc(C(F)(F)F)c2)c2ccc(-c3ncccc3Cl)nc2n1` [Compound 51, 7-(3-chloropyridin-2-yl)-2-(isobutoxymethyl)-N-{2-[3-(trifluoromethyl)phenyl]ethyl}pyrido[2,3-d]pyrimidin-4-amine] stands no less than 6.00; under `FC(F)(F)c1cccnc1-c1ccc2c(NCCc3c(Cl)cccc3Cl)ncnc2c1` [Compound 19, N-[2-(2,6-dichlorophenyl)ethyl]-7-[3-(trifluoromethyl)pyridin-2-yl]quinazolin-4-amine], no less than 6.00.

`C[C@@H]1CN(Cc2nc(NCCc3ccccc3Cl)c3ccc(-c4ncccc4Cl)cc3n2)C[C@@H](C)O1` (stereo in doubt) [Compound 166, [2-(2-Chloro-phenyl)-ethyl]-[7-(3-chloro-pyridin-2-yl)-2-(2,6-dimethyl-morpholin-4-ylmethyl)-quinazolin-4-yl]-amine]: the pIC50 (Table II) was no less than 6.00. Same read-out and setting: under `CCCCCCN(CCCCCC)Cc1nc(NCCc2ccccc2Cl)c2ccc(-c3ncccc3C(F)(F)F)cc2n1` [Compound 175, [2-(2-Chloro-phenyl)-ethyl]-[2-dihexylaminomethyl-7-(3-trifluoromethyl-pyridin-2-yl)-quinazolin-4-yl]-amine] stands no less than 6.00. As for `CC(C)COCc1nc(NCCc2ccccc2F)c2ccc(-c3ncccc3Cl)nc2n1` [Compound 44, 7-(3-chloropyridin-2-yl)-N-[2-(2-fluorophenyl)ethyl]-2-(isobutoxymethyl)pyrido[2,3-d]pyrimidin-4-amine], for the setting “Table I”, the pIC50 was no less than 6.00.

Take `Cc1ccccc1CCNc1nc(CN2CC(C)CC(C)C2)nc2cc(-c3ncccc3C(F)(F)F)ccc12` (stereo not drawn) [Compound 177, [2-(3,5-Dimethyl-piperidin-1-ylmethyl)-7-(3-trifluoromethyl-pyridin-2-Yl)-quinazolin-4-yl]-(2-o-tolyl-ethyl)-amine]: the pIC50 (Table II) is no less than 6.00. Turning to `FC(F)(F)c1ccccc1-c1ccc2c(NCCc3ccccc3)ncnc2c1` [Compound 1, N-(2-phenylethyl)-7-{2-(trifluoromethyl)phenyl]quinazolin-4-amine], the pIC50 (Table I) is no less than 6.00. For the compound `FC(F)(F)c1cccnc1-c1ccc2c(NCCCc3ccccc3)ncnc2c1` [Compound 63, (3-Phenyl-propyl)-[7-(3-trifluoromethyl-pyridin-2-yl)-quinazolin-4-yl]-amine], under “Table II”, the pIC50 was no less than 6.00. On the same count and under the same terms, in the case of `CCC(CNc1ncnc2cc(-c3ncccc3C(F)(F)F)ccc12)c1ccccc1` (stereo not drawn) [Compound 68, (2-Phenyl-butyl)-[7-(3-trifluoromethyl-pyridin-2-yl)-quinazolin-4-yl]-amine] it was no less than 6.00; in that of `FC(F)(F)c1cccnc1-c1ccc2c(NC3CCc4ccccc43)ncnc2c1` (stereo not drawn) [Compound 78, Indan-1-yl-[7-(3-trifluoromethyl-pyridin-2-yl)-quinazolin-4-yl]-amine], no less than 6.00. On to `CCOCc1nc(NCCc2ccc(F)cc2)c2ccc(-c3ncccc3Cl)nc2n1` [Compound 53, 7-(3-chloropyridin-2-yl)-2-(ethoxymethyl)-N-[2-(4-fluorophenyl)ethyl]pyrido[2,3-d]pyrimidin-4-amine], for which, where the note is “Table I”, the pIC50 was no less than 6.00.

Turning to `CC(C)COCc1nc(NC(=O)Cc2ccc(F)cc2)c2ccc(-c3ncccc3C(F)(F)F)nc2n1` [Compound 59, 2-(4-fluorophenyl)-N-{2-(isobutoxymethyl)-7-[3-(trifluoromethyl)pyridin-2-yl]pyrido[2,3-d]pyrimidin-4-yl}acetamide], the pIC50 (Table I) was no less than 6.00. Still for that read-out and setting: under `CCOCc1nc(NCCc2ccccc2F)c2ccc(-c3ncccc3Cl)nc2n1` [Compound 52, 7-(3-chloropyridin-2-yl)-n-(ethoxymethyl)-N-[2-(2-fluorophenyl)ethyl]pyrido[2,3-d]pyrimidin-4-amine] stands no less than 6.00. As for `CCCCCC(CNc1ncnc2cc(-c3ncccc3C(F)(F)F)ccc12)c1ccccc1` (stereo not drawn) [Compound 73, (2-Phenyl-heptyl)-[7-(3-trifluoromethyl-pyridin-2-yl)-quinazolin-4-yl]-amine], for the setting “Table II”, the pIC50 was no less than 6.00. For the compound `CC(Cc1ccc(Cl)cc1)Nc1ncnc2cc(-c3ncccc3C(F)(F)F)ccc12` (stereo not drawn) [Compound 21, N-[2-(4-chlorophenyl)-1-methylethyl]-7-[3-(trifluoromethyl)pyridin-2-yl]quinazolin-4-amine], the pIC50 (Table I) is no less than 6.00.
